Entries after “also recorded” stand apart in the source; their conditions may differ. Starred links: 1 amine or outer side, 2 acyl side, 3 side chain; linkers in the order of their positions; H or OH if unused. Positions of bridges follow the written chain, without caps; N, C: chain ends. Non-standard residues stand in square brackets, D forms with d. Residues, ends and D or L forms follow the SMILES beside them. Chains are numbered I, II in the order given. Actinocin(9to1) = Cc1c2oc3c(C)ccc(C(=O)[*:1])c3nc-2c(C(=O)[*:2])c(N)c1=O; NMeV = CN[C@H](C(=O)O)C(C)C; Nle = CCCC[C@H](N)C(=O)O; Sar = CNCC(=O)O
B1: interleukin 1-α: interleukin 1-α (protein, UniProt P01583 113-271, looked up)
Interleukin-1 alpha: SAPFSFLSNVKYNFMRIIKYEFILNDALNQSIIRANDQYLTAAALHNLDEAVKFDMGAYKSSKDDAKITVILRISKTQLYVTAQDEDQPVLLKEMPEIPKTITGSETNLLFFWETHGTKNYFTSVAHPNLFIATKQDYWVCLAGGPPSITDFQILENQA

Experiments:
ERCC1 = conditions: human ovarian cancer cells after cisplatin exposure; cited from earlier work
OPN promoter = OPN promoter luciferase reporter assay in melanoma cell lines; assay type: cell-based, human; conditions: MDA-MB-435, MCC012A, MCC012F
Description: Empty pGL3 vector was used as control. Hedgehog ligands were added to the well 6 h prior to harvesting the cells (approximately 33 hr of initiation of transfection) for assay. Readings were normalized to total protein content. Each parameter was studied in triplicate and the experiment repeated at least 3 times. The data are represented as percent luciferase activity, which was derived as a percent of the relative light units in treated groups compared with the untreated groups.

RAW264.7 cells [1] = assay: Osteoclast differentiation, TRAP assay, RAW264.7; assay type: cell-based, murine; conditions: DM supplemented with SHH (100 nM) or OPN (100 ng/ml) vs DM alone
Description: Cell lines—Human metastatic breast cancer cells, MDA-MB-231, were cultured in Dulbecco's Modified Eagle's Medium (DMEM/F12; Invitrogen, Carlsbad, Calif.), supplemented with 2 mM L-glutamine, 1 mM sodium pyruvate, 0.02 mM non-essential amino acids, 5% fetal bovine serum, FBS (Atlanta Biologicals, Norcross, Ga.), without antibiotics or antimycotics (cDME/F12). SUM1315 and SUM159 cells (DiMeo, T. A., et al. (2009) Cancer Res 69, 5364-5373) (Asterand, Detroit, Mich.) were cultured in DMEM/F12 supplemented with […] insulin, 5% FBS (Atlanta Biologicals) and either 10 ng/ml EGF or 1 ng/ml hydrocortisone, without antibiotics or antimycotics. The SUM1315 cells are derived from a metastasis in a patient with infiltrating ductal carcinoma; SUM159 cells were derived from a primary breast tumor with metaplastic ccarcinoma. RAW264.7 (ATCC, TIB 71) cells, a murine pre-osteoclastic line capable of differentiation and mineralization in culture (in presence of RANKL and MCSF), were grown in DMEM with L-glutamine (ATCC, 30-2002) supplemented with 10% FBS. A 2× differentiation medium (DM) was formulated for the RAW 264.7 cells comprising RAW264.7 growth medium supplemented with 20% FBS, RANKL (100 ng/ml) and M-CSF (40 ng/ml) (Matsubara, T., et al. J Bone Miner Res 25, 1068-1076). Conditioned media was harvested from breast cancer cells and mixed in a 1:1 ratio with double strength differentiation medium to assess the effect on osteoclast differentiation. 1×DM was used as control or wherever SHH (R & D Systems, Minneapolis, Minn.) or OPN (R & D Systems) was used alone. The medium on the RAW264.7 cells was replenished every 48 hours. In order to assess the effect of secreted Hh ligands, the neutralizing 5E1 antibody was used (Developmental Studies Hybridoma Bank, at the University of Iowa, Iowa). The amount of 5E1 antibody used for the studies was determined following titration of the antibody with respect to its effects on osteoclast differentiation. Medium was supplemented with 5E1 (2.5 μg/ml) and was changed on alternate days until the end of the experiment. The effect of OPN on osteoclast activity was assessed by transfecting an OPN shRNA-expressing construct on day 6 post-induction of differentiation. Fresh DM was added the following day and cells were allowed to grow for another 12 hours before termination of experiment. GLI1 expression was silenced in the SUM1315 cells using shRNA targeting GLI1 into pSuperior. gfp+neo (Oligoengine, Wash., USA). […]
Osteoclast differentiation and activity assays—Tartarate-resistant acid phosphatase (TRAP) assay was conducted for RAW 264.7 following the manufacturer's protocol (Sigma, St. Louis, Mo.). […] The percentage of area resorbed was calculated using the NIS-Elements BR. […]

RAW264.7 cells [2] = assay: Osteoclast resorption activity, OAAS plates; assay type: cell-based, murine; conditions: DM supplemented with SHH (100 nM) or OPN (100 ng/ml)
Description: Osteoclast differentiation and activity assays—Tartarate-resistant acid phosphatase (TRAP) assay was conducted for RAW 264.7 following the manufacturer's protocol (Sigma, St. Louis, Mo.). This assay was indicative of the extent of differentiation. OAAS plates (Osteogenic Core Technologies, Choongnam, Republic of Korea) were utilized to measure osteoclastic activity. RAW 264.7 cells (25×103) were inoculated in 48-well plates. Cells were treated with serum-free conditioned media from breast cancer cells or 100 nM SHH or 100 ng/ml OPN on the following day. Media was changed every two days and the experiments were terminated either on day 6 (day 7 for knockdown experiments, with transfections being done on the sixth day). At the completion, cells were detached with 5% sodium hypochlorite and the wells were observed under a Nikon Eclipse TS 100 microscope at 10× magnification. […] The percentage of area resorbed was calculated using the NIS-Elements BR. 3.1 software.

Gli1 = assay: GLI1 silencing by shRNA constructs in MDA-MB-435 cells, Western blot; assay type: cell-based, human
Description: To evaluate the functional effects of active Hedgehog signaling stable cell lines that were knocked down for GLI1 expression by RNA interference were generated. The efficacy of three shRNA constructs for silencing GLI1 expression was assessed.
Generation of Stable Transfectants—Endogenous GLI1 from MDA-MB-435 cells was silenced using shRNAs (short hairpin RNA) cloned into pSuperior.neo+gfp plasmid (OligoEngine, Seattle, Wash.) (TABLE 1). Introduction of double-stranded RNA has proven to be a powerful tool to suppress gene expression through a process known as RNA interference (P. A. Sharp, Genes Dev. 13, 139 (1999)). However, in some mammalian cells this can provoke a strong cytotoxic response (T. Hunter, T. Hunt, R. J. Jackson, H. D. Robertson, J. Biol. Chem. 250, 409 (1975)). This non-specific effect can be circumvented by use of synthetic short [21- to 22-nucleotide (nt)] interfering RNAs (siRNAs), which can mediate strong and specific suppression of gene expression (S. M. Elbashir et al., Nature 411, 494 (2001)). shRNAs included a target sequence sense strand, a short hairpin, and a target sequence antisense strand.
Western Blotting Analysis—Whole cell lysates were collected in Nonidet P-40 buffer (150 mM NaCl, 50 mM Tris, 1% Nonidet P-40). […] Secreted OPN was assessed by loading an equal quantity of protein from the serum-free conditioned medium. […]

| Molecule | effect on ERCC1 up-regulation (ERCC1) | also measured |
| --- | --- | --- |
| CCCC[C@@H](C=O)NC(=O)[C@H](CC(C)C)NC(=O)[C@H](CC(C)C)NC(C)=O [N-acetyl-leucyl-leucyl-norleucinal] (Ac-Leu-Leu-[Nle]-aldehyde) | blunted ERCC1 up-regulation | – |
| [Cr] [chromium] | blunted ERCC1 up-regulation | – |
| C[C@H]1CC[C@]2(NC1)O[C@H]1C[C@H]3[C@@H]4CC[C@H]5C[C@@H](O)CC[C@]5(C)[C@H]4CC[C@]3(C)[C@H]1[C@@H]2C [tomatidine] | – | OPN promoter activity (OPN promoter): had no effect on the promoter activity; OPN promoter activity (OPN promoter; listed as Tomatidine): had no effect on the promoter activity of OPN |
| CC[C@H](C)[C@@H]1NC(=O)CNC(=O)[C@@H]2Cc3c([nH]c4cc(O)ccc34)[S+]([O-])C[C@@H](NC(=O)CNC1=O)C(=O)N[C@@H](CC(N)=O)C(=O)N1C[C@H](O)C[C@H]1C(=O)N[C@@H]([C@@H](C)[C@@H](O)CO)C(=O)N2 (stereo in doubt) [α-amanitin] | blunted ERCC1 up-regulation | – |
| CO[C@H]1[C@@H](OC)C[C@H](C)[C@@H](OC)C2=CC(=O)C=C(NC(=O)/C(C)=C/C=C\[C@H](OC)[C@@H](OC(N)=O)/C(C)=C/[C@@H]1C)C2=O [herbimycin A] | blunted ERCC1 up-regulation | – |
| Cc1cc(C)c(/C=C2\C(=O)Nc3ccccc32)[nH]1 [SU5416] | blunted ERCC1 up-regulation | – |
| OPN: recombinant human osteopontin (R & D Systems) | – | numbers of TRAP stained multinucleate cells (RAW264.7 cells [1]): significant (p<0.005) increase; osteoclast activity (area resorbed) (RAW264.7 cells [2]): notably enhances (p<0.001) osteoclast activity |
| C[C@@H]1C[C@@H]([C@H](O)CC2CC(=O)NC(=O)C2)C(=O)[C@@H](C)C1 [cycloheximide] | blunted ERCC1 up-regulation | – |
| GLI1 shRNA-2: shRNA construct targeting GLI1 mRNA sequence TCATCAACTCGCGATGCAC, position 325 (target site or template, no part of the molecule) | – | GLI1 silencing (Gli1; shRNA cloned into pSUPERIOR): effective at silencing GLI1; also recorded: more effective GLI1 silencing; OPN expression (Gli1; shRNA-transfected cells): decreased OPN expression |
| CC(=O)N[C@@H](CSC(=O)[C@]1([C@@H](O)C(C)C)NC(=O)[C@H](C)[C@@H]1O)C(=O)O [lactacystin] | blunted ERCC1 up-regulation | – |
| [Pt] [platinum] | blunted ERCC1 up-regulation | – |
| Cc1c2oc3c(C)ccc(C(=O)N[C@@H]4C(=O)N[C@H](C(C)C)C(=O)N5CCC[C@H]5C(=O)N(C)CC(=O)N(C)[C@@H](C(C)C)C(=O)O[C@@H]4C)c3nc-2c(C(=O)N[C@@H]2C(=O)N[C@H](C(C)C)C(=O)N3CCC[C@H]3C(=O)N(C)CC(=O)N(C)[C@@H](C(C)C)C(=O)O[C@@H]2C)c(N)c1=O [actinomycin D] (I: T[dV]P[Sar][NMeV] / II: T[dV]P[Sar][NMeV]; ester I:1-I:C, II:1-II:C; linker I:N-II:N via Actinocin(9to1)) | blunted ERCC1 up-regulation | – |
| B1 | blunted ERCC1 up-regulation | – |
